Assay results taken from patent US6492426B1, “Use of 1-aminoindan derivatives for treatment of mania in bipolar mood disorder” (priority 1999, dated 2002).
Values joined by “and” are separate entries in the source; they are usually repeats but may differ in a detail not shown here. Identical values can stand only once.

Test system: amphetamine-induced hyperactivity in rats
Assay: amphetamine-induced hyperactivity model of mania in rats (automated activity monitors)
Assay type: in vivo, Sprague Dawley rats
Details: for Effect on amphetamine-induced locomotor activity versus control (ANOVA) / Effect on amphetamine-induced vertical activity versus control (ANOVA) / Effect on activity levels of rats (summary): 75 mg/kg IP; for Effect on amphetamine-induced locomotor activity versus control (ANOVA) / Effect on amphetamine-induced vertical activity versus control (ANOVA) / Locomotor activity, 10 min: 19 h and 3 h before testing; for Effect on amphetamine-induced locomotor activity versus control (ANOVA) / Effect on amphetamine-induced vertical activity versus control (ANOVA) / Effect on activity levels of rats (summary) / Anti-manic potential from the tested model (conclusion): result in words; for Effect on activity levels of rats (summary): amphetamine-treated rats; for Anti-manic potential from the tested model (conclusion): based on the tested model and doses; for Locomotor activity, 20 min, mean / Vertical activity, 20 min, mean / Locomotor activity, 30 min, mean / Vertical activity, 30 min, mean / Locomotor activity, 10 min, mean / Vertical activity, 10 min, mean / Locomotor activity, 20-10 min, mean / Vertical activity, 20-10 min, mean / Locomotor activity, 30-20 min, mean / Vertical activity, 30-20 min, mean: group mean n=10; for Locomotor activity, 20 min, mean / Vertical activity, 20 min, mean / Locomotor activity, 30 min, mean / Vertical activity, 30 min, mean / Locomotor activity, 10 min, mean / Vertical activity, 10 min, mean / Locomotor activity, 20-10 min, mean / Vertical activity, 20-10 min, mean / Locomotor activity, 30-20 min, mean / Vertical activity, 30-20 min, mean / Locomotor activity, 10 min / Locomotor activity, 20 min / Vertical activity, 20 min / Locomotor activity, 30 min / Vertical activity, 30 min / Vertical activity, 10 min / Locomotor activity, 20-10 min / Vertical activity, 20-10 min / Locomotor activity, 30-20 min / Vertical activity, 30-20 min: 75 mg/kg IP twice, amphetamine 0.5 mg/kg s.c.; for Locomotor activity, 20 min, mean / Vertical activity, 20 min, mean / Locomotor activity, 20 min / Vertical activity, 20 min: cumulative to 20 min; for Locomotor activity, 30 min, mean / Vertical activity, 30 min, mean / Locomotor activity, 30 min / Vertical activity, 30 min: cumulative to 30 min; for Locomotor activity, 10 min, mean / Vertical activity, 10 min, mean / Locomotor activity, 10 min / Vertical activity, 10 min: first 10 min; for Locomotor activity, 20-10 min, mean / Vertical activity, 20-10 min, mean / Locomotor activity, 20-10 min / Vertical activity, 20-10 min: second 10 min interval; for Locomotor activity, 30-20 min, mean / Vertical activity, 30-20 min, mean / Locomotor activity, 30-20 min / Vertical activity, 30-20 min: third 10 min interval; for Locomotor activity, 10 min / Locomotor activity, 20 min / Vertical activity, 20 min / Locomotor activity, 30 min / Vertical activity, 30 min / Vertical activity, 10 min / Locomotor activity, 20-10 min / Vertical activity, 20-10 min / Locomotor activity, 30-20 min / Vertical activity, 30-20 min: individual rat; for Locomotor activity, 20-10 min / Vertical activity, 20-10 min / Locomotor activity, 30-20 min / Vertical activity, 30-20 min: non cumulative
Protocol: Evaluation of possible anti-bipolar effects of compounds 1 to 4 was effected by an amphetamine-induced hyperactivity model of mania in rats. Each of the compounds was examined in a separate experiment and compared with a control group, treated with the same dose of amphetamine.
Twenty Sprague Dawley rats, weighing 200-250 g served for each of the four (4) experiments. Rats were housed in a colony room with constant temperature (22° C.), 12 h light/dark cycle and free access to food and water. Each experiment consisted of two groups (n=10 per group), one group was treated with the compound (1 to 4) and the other with vehicle solution. In experiments 1-4, the drugs were administered intraperitoneally (IP). All experimental procedures were conducted during the light phase of the light/dark cycle.
Amphetamine (0.5 mg/kg, sub-cutaneous (s.c.), diluted in de-ionized water) was injected into all rats (both groups of each experiment) immediately prior to behavioral testing. In experiments 1 to 4, compounds (R)-N-acetyl aminoindan (1); (S)-N-indanyl glycinamide HCl (2); (rac)-N-(2-aminoacetyl)-1-aminoindan HCl (3); and (S)-N-formyl aminoindan (4) were injected twice intraperitoneally (IP) at a dose of 75 mg/kg, 19 h and 3 h prior to behavioral testing in experiments. All compounds were suspended in a 5% methyl cellulose solution. The vehicle solution was administered to the control animals.
Immediately after amphetamine injection, rats were placed in automated activity monitors and their activity levels were scored every 10 minutes in the 30 minute time span for experiments 1 to 4. Activity scores included separate measurements of horizontal (locomotion) and of vertical (rearing) activity.
Repeated ANOVA measurements were used to examine the effects of compounds 1 to 4 on locomotor and on vertical activity. One factor measured the treatment of the rats using compounds 1 to 4 or the control vehicle; the repeated measure factor was time (three 10 minute intervals). Post hoc LSD (least significant difference) tests were used to determine whether significant differences occurred in different time periods, where relevant.

| SMILES | Effect on amphetamine-induced locomotor activity versus control (ANOVA) | Effect on amphetamine-induced vertical activity versus control (ANOVA) | Effect on activity levels of rats (summary) | Anti-manic potential from the tested model (conclusion) | Locomotor activity, 20 min, mean [counts] | Vertical activity, 20 min, mean [counts] | Locomotor activity, 30 min, mean [counts] | Vertical activity, 30 min, mean [counts] | Locomotor activity, 10 min, mean [counts] | Vertical activity, 10 min, mean [counts] | Locomotor activity, 20-10 min, mean [counts] | Vertical activity, 20-10 min, mean [counts] | Locomotor activity, 30-20 min, mean [counts] | Vertical activity, 30-20 min, mean [counts] | Locomotor activity, 10 min (HCl) | Locomotor activity, 20 min (HCl) | Vertical activity, 20 min (HCl) | Locomotor activity, 30 min (HCl) | Vertical activity, 30 min (HCl) | Vertical activity, 10 min (HCl) | also measured |
| --- | --- | --- | --- | --- | --- | --- | --- | --- | --- | --- | --- | --- | --- | --- | --- | --- | --- | --- | --- | --- | --- |
| Cl.NCC(=O)NC1CCc2ccccc21 (racemic) [Compound 3, (rac)-N-(2-aminoacetyl)-1-aminoindan HCl] | significantly reduced locomotor activity | similar, albeit non-significant, effect | reduced the activity levels | show anti-manic potential | 1037 | 32 | 1397.4 | 48.3 | 494.4 | 23.1 | 542.6 | 8.9 | 360.4 | 16.3 | 379 counts and 525 counts and 338 counts and 553 counts and 449 counts and 349 counts and 584 counts and 614 counts and 537 counts and 616 counts | 1214 counts and 1196 counts and 621 counts and 1303 counts and 862 counts and 663 counts and 1104 counts and 1349 counts and 1095 counts and 963 counts | 0 counts and 33 counts and 11 counts and 91 counts and 26 counts and 5 counts and 66 counts (2×) and 1 counts and 21 counts | 1678 counts and 1507 counts and 691 counts and 1619 counts and 1112 counts and 917 counts and 1576 counts and 1810 counts and 1758 counts and 1306 counts | 1 counts and 35 counts (2×) and 11 counts and 101 counts and 5 counts and 75 counts and 100 counts and 38 counts and 82 counts | 0 counts and 17 counts and 7 counts and 27 counts and 11 counts and 5 counts and 36 counts and 58 counts and 16 counts and 54 counts | Locomotor activity, 20-10 min (HCl): 835 counts and 671 counts and 283 counts and 750 counts and 413 counts and 314 counts and 520 counts and 735 counts and 558 counts and 347 counts; Vertical activity, 20-10 min (HCl): 0 counts (2×) and 16 counts and 4 counts and 64 counts and 15 counts and 30 counts and −57 counts and 5 counts and 12 counts; Locomotor activity, 30-20 min (HCl): 464 counts and 311 counts and 70 counts and 316 counts and 250 counts and 254 counts and 472 counts and 461 counts and 663 counts and 343 counts; Vertical activity, 30-20 min (HCl): 1 counts and 2 counts and 0 counts (2×) and 10 counts and 9 counts (2×) and 99 counts and 17 counts and 16 counts |
| CC(=O)N[C@@H]1CCc2ccccc21 [Compound 1, (R)-N-acetyl aminoindan] | significantly reduced locomotion | – | reduced the activity levels | show anti-manic potential | 945.8 | 22.5 | 1395.6 | 33.8 | 545.3 | 14.2 | 400.5 | 8.3 | 449.8 | 11.3 | – | – | – | – | – | – | Locomotor activity, 10 min: 600 counts and 448 counts and 718 counts and 740 counts and 570 counts and 426 counts and 395 counts and 462 counts and 681 counts and 413 counts; Locomotor activity, 20 min: 930 counts and 677 counts and 1125 counts and 1026 counts and 1147 counts and 802 counts and 800 counts and 794 counts and 1361 counts and 796 counts; Vertical activity, 20 min: 34 counts and 12 counts (2×) and 18 counts and 29 counts and 37 counts and 28 counts and 11 counts and 39 counts and 5 counts; Locomotor activity, 30 min: 1436 counts and 1027 counts and 1653 counts and 1317 counts and 1776 counts and 1230 counts and 1053 counts and 1150 counts and 2064 counts and 1250 counts; Vertical activity, 30 min: 62 counts and 18 counts and 20 counts and 31 counts and 53 counts and 38 counts and 12 counts and 21 counts and 76 counts and 7 counts; Vertical activity, 10 min: 27 counts and 9 counts and 16 counts (2×) and 29 counts and 20 counts and 5 counts and 10 counts and 6 counts and 4 counts; Locomotor activity, 20-10 min: 330 counts and 229 counts and 407 counts and 286 counts and 577 counts and 376 counts and 405 counts and 332 counts and 680 counts and 383 counts; Vertical activity, 20-10 min: 7 counts (2×) and 3 counts and 2 counts and 0 counts and 17 counts and 12 counts and 1 counts (2×) and 33 counts; Locomotor activity, 30-20 min: 506 counts and 350 counts and 528 counts and 291 counts and 629 counts and 428 counts and 253 counts and 356 counts and 703 counts and 454 counts; Vertical activity, 30-20 min: 28 counts and 6 counts and 2 counts (3×) and 16 counts and 10 counts (2×) and 0 counts and 37 counts |
| Cl.NCC(=O)N[C@H]1CCc2ccccc21 [Compound 2, (S)-N-indanyl glycinamide HCl] | did not have a significant effect | significantly increased the level of vertical activity | surprisingly increased activity | does not show anti-manic potential | 1277.9 | 96.3 | 1740.5 | 125 | 626 | 49.3 | 651.9 | 47 | 462.6 | 28.7 | 531 counts and 603 counts and 604 counts and 619 counts and 663 counts (2×) and 616 counts and 670 counts and 643 counts and 648 counts | 1096 counts and 1197 counts and 1334 counts and 1140 counts and 1525 counts and 1508 counts and 1366 counts and 1272 counts and 1325 counts and 1016 counts | 51 counts and 133 counts and 62 counts and 84 counts and 101 counts and 236 counts and 118 counts and 50 counts and 70 counts and 58 counts | 1547 counts and 1606 counts and 1964 counts and 1598 counts and 1908 counts and 2038 counts and 1670 counts and 1608 counts and 2047 counts and 1419 counts | 75 counts and 168 counts and 98 counts and 96 counts and 104 counts and 321 counts and 126 counts and 58 counts and 116 counts and 88 counts | 32 counts and 82 counts and 31 counts and 38 counts (3×) and 95 counts and 66 counts and 30 counts and 43 counts | Locomotor activity, 20-10 min (HCl): 565 counts and 594 counts and 730 counts and 521 counts and 862 counts and 892 counts and 696 counts and 629 counts and 677 counts and 353 counts; Vertical activity, 20-10 min (HCl): 19 counts and 51 counts and 31 counts and 46 counts and 63 counts and 141 counts and 52 counts and 12 counts and 40 counts and 15 counts; Locomotor activity, 30-20 min (HCl): 451 counts and 409 counts and 630 counts and 458 counts and 383 counts and 530 counts and 304 counts and 336 counts and 722 counts and 403 counts; Vertical activity, 30-20 min (HCl): 24 counts and 35 counts and 36 counts and 12 counts and 3 counts and 85 counts and 8 counts (2×) and 46 counts and 30 counts |
